Reference: patent US20240261274A1, “TREATMENT OF MYC-DRIVEN CANCERS WITH GSPT1 DEGRADERS” (MONTE ROSA THERAPEUTICS, INC., priority 2021, published 2024)

How the values were obtained:
[1] = target: T1, ZFP91 (Homo sapiens, UniProt Q96JP5+Q96SW2); test: Selectivity western blot assay in MM1 S cells, ZFP91; assay type: cell-based; design: key: A represents no degradation observed at 30 μM; B represents trace degradation at 30 μM (below 20%); C represents weak degradation at 30 μM (below 50%); D represents degradation at 30 μM (>90%); E represents degradation at 3 μM (>90%); F represents degradation at 0.3 μM (>90%); conditions: MM1 S cells, 0.3, 3 and 30 μM, 6 hours
T1 construct: endogenous in cells; host or cells: MM1 S (ATCC CRL-2974)
T1 sequence (Q96JP5 whole entry): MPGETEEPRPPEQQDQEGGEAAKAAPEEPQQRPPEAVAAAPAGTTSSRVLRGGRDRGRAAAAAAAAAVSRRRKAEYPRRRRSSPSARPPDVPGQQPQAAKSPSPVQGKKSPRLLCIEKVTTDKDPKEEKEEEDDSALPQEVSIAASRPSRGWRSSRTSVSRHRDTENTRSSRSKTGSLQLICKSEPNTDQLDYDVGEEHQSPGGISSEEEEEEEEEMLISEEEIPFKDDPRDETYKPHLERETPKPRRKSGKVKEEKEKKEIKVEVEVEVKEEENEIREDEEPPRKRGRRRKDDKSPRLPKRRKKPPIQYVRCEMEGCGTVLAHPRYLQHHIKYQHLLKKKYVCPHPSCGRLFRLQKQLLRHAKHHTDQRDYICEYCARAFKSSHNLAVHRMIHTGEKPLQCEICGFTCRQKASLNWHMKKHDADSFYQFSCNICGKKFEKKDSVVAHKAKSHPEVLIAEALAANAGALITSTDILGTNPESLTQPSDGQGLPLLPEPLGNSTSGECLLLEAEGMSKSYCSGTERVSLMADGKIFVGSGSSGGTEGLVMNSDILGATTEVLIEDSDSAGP
T1 sequence (Q96SW2 whole entry): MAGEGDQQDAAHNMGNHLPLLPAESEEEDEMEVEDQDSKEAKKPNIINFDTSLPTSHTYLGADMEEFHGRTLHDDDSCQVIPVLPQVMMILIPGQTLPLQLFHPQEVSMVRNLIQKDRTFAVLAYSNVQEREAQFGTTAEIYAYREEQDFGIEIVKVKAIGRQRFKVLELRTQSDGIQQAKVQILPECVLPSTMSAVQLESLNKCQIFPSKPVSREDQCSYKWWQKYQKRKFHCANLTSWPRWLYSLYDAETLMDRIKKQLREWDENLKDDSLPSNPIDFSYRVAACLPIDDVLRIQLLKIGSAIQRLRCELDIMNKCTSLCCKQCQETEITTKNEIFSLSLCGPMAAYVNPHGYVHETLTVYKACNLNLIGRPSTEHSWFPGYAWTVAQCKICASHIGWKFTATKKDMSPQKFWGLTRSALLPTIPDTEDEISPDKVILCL
T1 sequence (Q16531 whole entry partner): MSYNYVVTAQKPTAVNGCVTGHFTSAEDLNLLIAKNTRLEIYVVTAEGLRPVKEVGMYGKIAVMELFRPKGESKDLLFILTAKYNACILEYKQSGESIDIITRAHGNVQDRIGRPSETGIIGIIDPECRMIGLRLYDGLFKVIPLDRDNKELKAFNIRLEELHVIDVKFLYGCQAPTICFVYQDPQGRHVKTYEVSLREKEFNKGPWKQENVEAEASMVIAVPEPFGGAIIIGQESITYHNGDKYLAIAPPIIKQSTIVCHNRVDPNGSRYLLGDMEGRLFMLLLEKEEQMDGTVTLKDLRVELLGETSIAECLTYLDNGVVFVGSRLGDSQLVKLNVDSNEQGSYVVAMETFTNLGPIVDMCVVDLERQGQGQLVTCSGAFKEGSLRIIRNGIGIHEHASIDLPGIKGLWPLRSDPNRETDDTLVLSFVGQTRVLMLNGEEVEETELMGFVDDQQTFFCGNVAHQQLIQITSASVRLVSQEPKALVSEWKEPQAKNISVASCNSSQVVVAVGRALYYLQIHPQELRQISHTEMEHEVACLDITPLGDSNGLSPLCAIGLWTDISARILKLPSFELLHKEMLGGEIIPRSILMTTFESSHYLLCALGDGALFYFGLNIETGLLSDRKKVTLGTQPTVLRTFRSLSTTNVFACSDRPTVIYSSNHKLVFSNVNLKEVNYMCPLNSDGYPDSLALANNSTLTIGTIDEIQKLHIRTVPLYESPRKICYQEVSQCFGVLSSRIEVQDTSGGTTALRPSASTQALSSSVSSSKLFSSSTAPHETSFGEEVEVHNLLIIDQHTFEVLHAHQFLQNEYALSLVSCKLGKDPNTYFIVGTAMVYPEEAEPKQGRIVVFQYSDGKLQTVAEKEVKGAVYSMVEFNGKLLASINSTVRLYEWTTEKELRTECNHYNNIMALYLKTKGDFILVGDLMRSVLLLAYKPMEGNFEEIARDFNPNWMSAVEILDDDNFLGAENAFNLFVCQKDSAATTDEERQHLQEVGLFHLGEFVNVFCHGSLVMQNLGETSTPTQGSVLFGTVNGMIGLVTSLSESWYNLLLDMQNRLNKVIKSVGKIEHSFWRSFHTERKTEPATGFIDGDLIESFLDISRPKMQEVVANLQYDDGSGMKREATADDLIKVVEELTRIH
Experimental: MM1 S cells were purchased from ATCC (cat. Number CRL-2974), sub-cultured in 90% RPMI 1640 with 10% FBS, supplemented with 1×P/S and incubated at 37° C., 5% CO2. Compounds were stored as 10 mM DMSO stock. For the assay, MM1 S cells (3 million cells/well) were plated in 6-well plates and incubated over night. Cells were treated with respective compounds using a serial dilution: 0.3 μM, 3 μM and 30 μM as well as a vehicle only (DMSO) control for 6 hours. Media with suspension cells was subsequently transferred to 15 mL conical tubes, wells rinsed twice with ice-cold PBS and merged with cell suspension in respective 15 mL conical tube. Cells were spinned down, supernatant aspirated, pellets resuspended in ice-cold PBS and transferred to microtubes. Cells were spinned down, supernatant aspirated and pellets resuspended in 120 μL RIPA lysis buffer supplemented with protease and phosphatase inhibitors. Cell lysates were incubated on ice for 20 minutes followed by centrifugation at >20,000×g for 5 min. Supernatants were transferred to fresh microtubes and stored at −80° C. Total protein concentration was determined using a BCA assay with a BSA standard curve and concentration of all samples was adjusted to 1 mg/mL. 25 μL 4×LDS sample buffer supplemented with 100 mM DTT was added to 75 μL sample. Samples were centrifuged (8,000×g, 1 min) and incubated at 95° C. for 5 min followed by another centrifugation step (8,000×g, 1 min). 20 μL of each sample was loaded on a 4-12% gel alongside a protein molecular weight marker. Gels were run in the presence of MOPS buffer at 80 Volts for 30 min, followed by 120 Volts for 1.5 h and proteins subsequently transferred onto nitrocellulose membranes at 20 Volts for 7 min using an iBlot2 Gel Transfer Device. Membranes were then cut horizontally into two pieces, covering 80-50 kDa and 50-25 kDa. Blocking the membranes was performed by gently shaking in 5% (w/v) skim milk in TSB-T for 1 hr at room temperature. All primary antibodies were used at a 1/1000 in 5% (w/v) BSA dissolved in TBST and incubated with membranes over night at 4° C. After three washes with 1×TBST for 5 min, HRP-coupled secondary antibodies diluted in 5% (w/v) BSA/TBST (Goat Anti-Rb IgG, dil. 1/10,000; Goat Anti-Mouse IgG, dil. 1/5000) were added for 1 hr at room temperature. After three washes with 1×TBST (5 minutes each), membranes were incubated with ECL reagent for 1 min at room temperature. Chemiluminescence signals were then detected using a LAS-4000 system with default settings and signals quantified using Image Studio Lite software (version 5.2). Membrane parts previously incubated with antibody against CK1 alpha were stripped off antibodies by incubating with stripping buffer for 30 minutes followed by three washed with TBST (5 min each), blocking with 5% (w/v) skim milk for 1 hr, and incubation with primary antibody against uGAPDH overnight at 4° C. Subsequent washes, incubation with secondary antibody and signal acquisition were performed as described above.

[2] = tested on: N-Myc; test: N-Myc levels in NCI-H1155 tumors (Compound 345); assay type: in vivo, mice; conditions: day 5, 1 mg/kg and 10 mg/kg, strongest effect at 10 mg/kg
Experimental: Additionally, plasma concentrations of Compound 345 and levels of GSPT1 and […] (relative to vehicle-only control) were measured in a time-course experiment on day 5 for the animals receiving 1 mg/kg and 10 mg/kg.
GSPT1 and N-Myc western blotting analyses from NCI-H1155 tumors: The NCI-H1155 model was run as described previously and tumors were harvested following 5 consecutive daily PO doses of Compound 345 at 1.0 and 10 mg/kg. Tumors were lysed in 1× lysis buffer (CST, Cat. No. 9803, Lot No. 0000122383) supplemented with protease (Sigma, Cat. No. P8340) and phosphatase ((Sigma, Cat. No. P5726 and P0044) cocktail inhibitors using TissueLyser II (QIAGEN #85300). Samples were spined at 15,000 rpm in an Eppendorf microfuge for 15 min at 4° C. The protein supernatant was collected in a new 1.5 ml tube and the protein concentrations were determined by the Pierce BCA kit (Thermo, Cat. No. 23225). The tumor lysate samples were mixed with 5×SDS-PAGE loading buffer boiled for 5 min and brought to ice for 5 min. 30 μg of protein was loaded onto a NUPAGE 4-12% BT gel (Invitrogen, Cat. No. NPO336BOX) for separation. […] Membranes were imaged on the Odyssey imager (Li-COR) using fluorescence or cheminulinescence detection. […] Data are expressed as mean±SEM derived from at least three different mice and collected at 0, 2, 6, 12, 24, 48, 72 and 96 hr as indicated.

SMILES | ZFP91 degradation [1] | N-Myc level relative to vehicle-only control [2]
Cc1ccc(NC(=O)NCc2ccc3c(c2)C(=O)N(C2CCC(=O)NC2=O)C3)cc1Cl (stereo not drawn) [Compound 8] | B (B represents trace degradation at 30 μM (below 20%)) | –
Cc1c(Cl)cc(NC(=O)NCc2ccc3c(c2)C(=O)N(C2CCC(=O)NC2=O)C3)cc1CN1C2CCC1COC2 (stereo not drawn) [Compound 138] | A | –
O=C1CCC(N2Cc3ccc(COC(=O)Nc4cc(OC(F)(F)F)ccc4F)cc3C2=O)C(=O)N1 (stereo not drawn) [Compound 345, (2-(2,6-dioxopiperidin-3-yl)-3-oxoisoindolin-5-yl)methyl(2-fluoro-5-(trifluoromethoxy)phenyl)carbamate] | – | substantially reduced
